Reference: patent publication US20180319810A1, “SUBSTITUTED BRIDGED UREA ANALOGS AS SIRTUIN MODULATORS” (GlaxoSmithKline Intellectual Property (No.2) Limited, priority 2014, published 2018)

Molecular target: T1, SIRT1 (Homo sapiens, UniProt Q96EB6)
T1 sequence (Q96EB6 1-747): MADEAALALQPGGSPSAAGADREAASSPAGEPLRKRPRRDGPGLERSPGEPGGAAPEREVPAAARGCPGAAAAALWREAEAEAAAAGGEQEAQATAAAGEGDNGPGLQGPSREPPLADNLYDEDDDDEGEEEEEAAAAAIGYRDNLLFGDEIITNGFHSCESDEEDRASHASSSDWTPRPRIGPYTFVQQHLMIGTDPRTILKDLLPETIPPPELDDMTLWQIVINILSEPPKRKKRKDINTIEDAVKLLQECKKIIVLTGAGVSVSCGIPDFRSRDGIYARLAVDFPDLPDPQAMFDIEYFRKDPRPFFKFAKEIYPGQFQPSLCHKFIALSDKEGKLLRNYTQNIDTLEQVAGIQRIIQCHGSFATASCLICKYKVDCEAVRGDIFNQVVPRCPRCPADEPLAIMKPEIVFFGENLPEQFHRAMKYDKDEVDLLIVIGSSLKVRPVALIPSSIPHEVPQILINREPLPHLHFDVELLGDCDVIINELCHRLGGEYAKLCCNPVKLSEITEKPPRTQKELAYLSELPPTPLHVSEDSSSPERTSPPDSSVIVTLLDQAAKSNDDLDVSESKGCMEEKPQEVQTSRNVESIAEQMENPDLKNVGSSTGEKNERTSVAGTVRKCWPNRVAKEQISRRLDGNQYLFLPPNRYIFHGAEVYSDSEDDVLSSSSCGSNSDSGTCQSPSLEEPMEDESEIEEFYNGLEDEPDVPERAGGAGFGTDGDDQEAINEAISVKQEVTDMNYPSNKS
Test: Trp mass spectrometry assay of SIRT1 activation
Type: biochemical
Settings: Trp peptide Ac-R-H-K-K(Ac)-W-NH2 0.5 μM, 120 μM βNAD+, 10 nM SIRT1, 25 min, 25° C.

SMILES	TRP Activity (EC1.5, concentration of compound required to increase SIRT1 activity by 50% over control)	TRP MAX RESP (percent maximum fold activation relative to control)
C[C@@H](NC(=O)c1ncc2c(n1)N(C(=O)Nc1cc(OC[C@H](O)CO)ccn1)[C@H]1CCCN2C1)C(F)(F)F [Example 64, (9S)—N10-(4-((R)-2,3-dihydroxypropoxy)pyridin-2-yl)-N2-((R)-1,1,1-trifluoropropan-2-yl)-8,9-dihydro-6H-5,9-methanopyrimido[4,5-b][1,4]diazocine-2,10(7H)-dicarboxamide]	A (EC1.5<1 μM)	A (Fold activation ≥150%)
O=C(Nc1cccc(OC[C@H](O)CO)n1)N1c2nc(-c3cccc(C(F)(F)F)c3)ncc2N2CC[C@H]1C2 [Example 22, (8S)—N-(6-((R)-2,3-dihydroxypropoxy)pyridin-2-yl)-2-(3-(trifluoromethyl)phenyl)-7,8-dihydro-5,8-methanopyrimido[4,5-b][1,4]diazepine-9(6H)-carboxamide]	A (EC1.5<1 μM)	A (Fold activation ≥150%)
O=C(Nc1nccc(OC[C@@H](O)CO)n1)N1c2nc(-c3cccc(C(F)(F)F)c3)ncc2N2CC[C@H]1C2 [Example 51, (8S)—N-(4-((S)-2,3-dihydroxypropoxy)pyrimidin-2-yl)-2-(3-(trifluoromethyl)phenyl)-7,8-dihydro-5,8-methanopyrimido[4,5-b][1,4]diazepine-9(6H)-carboxamide]	B (EC1.5 1-25 μM)	A (Fold activation ≥150%)
O=C(Nc1cncc(OC[C@H](O)CO)c1)N1c2nc(-c3cccc(C(F)(F)F)c3)ncc2N2CCC[C@H]1C2 [Example 81, (9S)—N-(5-((R)-2,3-dihydroxypropoxy)pyridin-3-yl)-2-(3-(trifluoromethyl)phenyl)-8,9-dihydro-6H-5,9-methanopyrimido[4,5-b][1,4]diazocine-10(7H)-carboxamide]	A (EC1.5<1 μM)	A (Fold activation ≥150%)
Cc1ccc(-c2ncc3c(n2)N(C(=O)Nc2ccccn2)[C@H]2CCN3C2)cn1 [Example 4, (8S)-2-(6-methylpyridin-3-yl)-N-(pyridin-2-yl)-7,8-dihydro-5,8-methanopyrimido[4,5-b][1,4]diazepine-9(6H)-carboxamide]	B (EC1.5 1-25 μM)	–
Cc1nc(-c2cccc(C(F)(F)F)c2)nc2c1N1CC[C@@H](C1)N2C(=O)Nc1nccc(OC[C@@H](O)CO)n1 [Example 47, (8S)—N-(4-((S)-2,3-dihydroxypropoxy)pyrimidin-2-yl)-4-methyl-2-(3-(trifluoromethyl)phenyl)-7,8-dihydro-5,8-methanopyrimido[4,5-b][1,4]diazepine-9(6H)-carboxamide]	B (EC1.5 1-25 μM)	A (Fold activation ≥150%)
Cc1nc(C(=O)N[C@H](C)C(F)(F)F)nc2c1N1CCC[C@@H](C1)N2C(=O)Nc1ccc(OC[C@@H](O)CO)nn1 [Example 74, (9S)—N10-(6-((S)-2,3-dihydroxypropoxy)pyridazin-3-yl)-4-methyl-N2-((R)-1,1,1-trifluoropropan-2-yl)-8,9-dihydro-6H-5,9-methanopyrimido[4,5-b][1,4]diazocine-2,10(7H)-dicarboxamide]	B (EC1.5 1-25 μM)	A (Fold activation ≥150%)
Cc1cc(-c2nc(C)c3c(n2)N(C(=O)Nc2ccccn2)[C@H]2CCN3C2)ccn1 [Example 10, (8S)-4-methyl-2-(2-methylpyridin-4-yl)-N-(pyridin-2-yl)-7,8-dihydro-5,8-methanopyrimido[4,5-b][1,4]diazepine-9(6H)-carboxamide]	B (EC1.5 1-25 μM)	A (Fold activation ≥150%)
O=C(Nc1ccnc(OC[C@@H](O)CO)n1)N1c2nc(-c3cccc(C(F)(F)F)c3)ncc2N2CC[C@H]1C2 [Example 17, (8S)—N-(2-((S)-2,3-dihydroxypropoxy)pyrimidin-4-yl)-2-(3-(trifluoromethyl)phenyl)-7,8-dihydro-5,8-methanopyrimido[4,5-b][1,4]diazepine-9(6H)-carboxamide]	B (EC1.5 1-25 μM)	A (Fold activation ≥150%)
O=C(Nc1ncc(OC[C@@H](O)CO)cn1)N1c2nc(-c3cccc(C(F)(F)F)c3)ncc2N2CC[C@H]1C2 [Example 43, (8S)—N-(5-((S)-2,3-dihydroxypropoxy)pyrimidin-2-yl)-2-(3-(trifluoromethyl)phenyl)-7,8-dihydro-5,8-methanopyrimido[4,5-b][1,4]diazepine-9(6H)-carboxamide]	B (EC1.5 1-25 μM)	A (Fold activation ≥150%)

Further lines, results first:

TRP Activity (EC1.5, concentration of compound required to increase SIRT1 activity by 50% over control)	TRP MAX RESP (percent maximum fold activation relative to control)	SMILES
A (EC1.5<1 μM)	–	O=C(Nc1ccccn1)N1c2nc(-c3cccc(C(F)(F)F)c3)ncc2N2CCC[C@H]1C2 [Example 86, (9S)—N-(pyridin-2-yl)-2-(3-(trifluoromethyl)phenyl)-8,9-dihydro-6H-5,9-methanopyrimido[4,5-b][1,4]diazocine-10(7H)-carboxamide]
A (EC1.5<1 μM)	A (Fold activation ≥150%)	O=C(Nc1cc(OC[C@H](O)CO)ncn1)N1c2nc(-c3cccc(C(F)(F)F)c3)ncc2N2CCC[C@H]1C2 [Example 92, (9S)—N-(6-((R)-2,3-dihydroxypropoxy)pyrimidin-4-yl)-2-(3-(trifluoromethyl)phenyl)-8,9-dihydro-6H-5,9-methanopyrimido[4,5-b][1,4]diazocine-10(7H)-carboxamide]
A (EC1.5<1 μM)	A (Fold activation ≥150%)	O=C(NC1CC1)N1c2nc(-c3cccc(C(F)(F)F)c3)ncc2N2CCC[C@H]1C2 [Example 87, (9S)—N-cyclopropyl-2-(3-(trifluoromethyl)phenyl)-8,9-dihydro-6H-5,9-methanopyrimido[4,5-b][1,4]diazocine-10(7H)-carboxamide]
A (EC1.5<1 μM)	A (Fold activation ≥150%)	Cc1nc(-c2cccc(C(F)(F)F)c2)nc2c1N1CCC[C@@H](C1)N2C(=O)Nc1ccc(OC[C@H](O)CO)cn1 [Example 113, (9S)—N-(5-((R)-2,3-dihydroxypropoxy)pyridin-2-yl)-4-methyl-2-(3-(trifluoromethyl)phenyl)-8,9-dihydro-6H-5,9-methanopyrimido[4,5-b][1,4]diazocine-10(7H)-carboxamide]
A (EC1.5<1 μM)	A (Fold activation ≥150%)	O=C(Nc1ccnc(OC[C@H](O)CO)n1)N1c2nc(-c3cccc(C(F)(F)F)c3)ncc2N2CCC[C@H]1C2 [Example 88, (9S)—N-(2-((R)-2,3-dihydroxypropoxy)pyrimidin-4-yl)-2-(3-(trifluoromethyl)phenyl)-8,9-dihydro-6H-5,9-methanopyrimido[4,5-b][1,4]diazocine-10(7H)-carboxamide]
